Experimental data reported in PubChem BioAssay AID540306 (Sanford-Burnham Center for Chemical Genomics, 2011).
Calls of active or inactive are those of the source.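 How the source made its calls: active means mean EC50 of 20 µM or lower; inactive means the rest.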

What follows are molecules tested against CHO-CHOP luciferase reporter, UPR apoptotic arm activation (assay: CHOP luciferase reporter activation – CHO-CHOP cells, luminescence, counter-screen for UPR adaptive arm activator project, SAR follow-up (AID 540306)).
For `Cc1cc(=O)[nH]c(Nc2nc(C)c3ccccc3n2)n1`, the EC50 was > 80 µM (inactive). With `Cc1cc(-c2ccccc2)nc(Nc2nc(C)c3ccccc3n2)n1` the EC50 was > 80 µM (inactive). With `Cc1nc(Nc2nc(-c3ccccc3)cc(=O)[nH]2)nc2ccccc12` the EC50 was > 80 µM (inactive). With `Cc1nc(Nc2nccc(-c3ccccc3)n2)nc2ccccc12` the EC50 was “inactive”. `Cc1nc(Nc2ncccn2)nc2ccccc12` was tested, and the EC50 was > 80 µM (inactive). With `Cc1ccnc(Nc2nc(-c3ccccc3)cc(=O)[nH]2)n1` the EC50 was > 80 µM (inactive). In the case of `COc1cc(-c2ccccc2)nc(Nc2nc(C)c3ccccc3n2)n1`, the EC50 is reported as > 80 µM (inactive). For `Cc1ccnc(Nc2ncccn2)n1`, the EC50 was > 80 µM (inactive).
